Results reported in patent US10231972B2, “Combination of a 6-oxo-1,6-dihydro-pyridazine derivative having anti-cancer activity with a quinazoline derivative” (MERCK PATENT GMBH, priority 2014, dated 2019).

Assays:
Assay type in all cases: in vivo
human H596 tumor cells = test: Human HGF dependent H596 lung xenograft model; details: oral daily; for median tumor volume change: day 14, female humanized HGF SCID mice, s.c. H596, 100 mg/kg pyridazinone, 30 mg/kg (from day 12 20 mg/kg) quinazoline, alone or combined; for median time until tumor progression: progression = TV change >73%, treatment up to 66 days, humanized HGF SCID mice
Description: Background: The human H596 lung model is c-Met expressing paracrine HGF/c-Met tumor model which a juxta-membran (JM) domain mutation of c-Met which lead to prolonged c-Met activation after HGF ligand binding. The model expresses […] with an activated c-Met pathway. This model carries a PI3KCA mutation (literature data).
Method: Female humanized HGF SCID mice (8-10 weeks old) where subcutaneously injected with human H596 tumor cells and were divided into treatment groups (8 animals per group) after the tumors were established.
(§1) Respective groups were administered orally with the 3-(1-{3-[5-(1-Methyl-piperidin-4-ylmethoxy)-pyrimidin-2-yl]-benzyl}-6-oxo-1,6-dihydro-pyridazin-3-yl)-benzonitrile hydrochloride hydrate (100 mg/kg) or 4-[(S)-2-azetidin-1-yl-1-(4-chloro-3-trifluoromethyl-phenyl)-ethylamino]-quinazoline-8-carboxylic acid amide (30 mg/kg, from day 12 20 mg/kg) daily in monotherapy or in combination until tumors progressed or until treatment period of 66 days. At day 14, the day when all animals in the vehicle group were still present, median tumor volume change in % were calculated. Statistical analysis has been done with two way-RM ANOVA. Median time until tumor progression under treatment has been calculated at the end of the study. Tumor progression is defined as tumor volume change >73%.

[1] = tested on: human NCI-H441 tumor cells; test: Human NCI-H441 lung xenograft model; details: oral daily; for median tumor volume change: day 21, female CD-1 nude mice, s.c. NCI-H441, 100 mg/kg pyridazinone, 30 mg/kg quinazoline, alone or combined; for median time until tumor progression: progression = TV change >73%, treatment up to 78 days, CD-1 nude mice
Protocol: Background: The human NCI-H441 lung model is an c-Met overexpressing tumor model with an activated c-Met pathway. This model carries a kras mutation. Literature data have shown phosphorylation of S6K is present in this tumor model.
as §1, with “Method: Female CD-1 nude mice (6-8 week old) where subcutaneously injected with human NCI-H441 tumor cells and were divided into treatment groups (8 animals per group) after the tumors were established. Respective” for “Respective”, “(30” for “(30 mg/kg, from day 12 20”, “78” for “66”, “21,” for “14,”, “of” for “when all animals in the”, “termination,” for “were still present,”

human U87-MG tumor cells = test: Human U87-MG xenograft model; details: oral daily; for median tumor volume (TV) change: day 12, female CD-1 nude mice, s.c. U87-MG, 100 mg/kg pyridazinone, 30 mg/kg quinazoline, alone or combined; for median time until tumor progression: progression = TV change >73%, treatment up to 65 days, CD-1 nude mice
Protocol: Background: The human U87-MG glioblastoma model is an autocrine HGF/c-Met expressing tumor model with an activated c-Met pathway. This model carries a mutation of PTEN, a negative regulator of the PI3K signaling.
Method: Female CD-1 nude mice (6-8 weeks old) where subcutaneously injected with human U87-MG tumor cells and were divided into treatment groups (8 animals per group) after the tumors were established. Respective groups were administered orally with the 3-(1-{3-[5-(1-Methyl-piperidin-4-ylmethoxy)-pyrimidin-2-yl]-benzyl}-6-oxo-1,6-dihydro-pyridazin-3-yl)-benzonitrile hydrochloride hydrate (100 mg/kg) or 4-[(S)-2-azetidin-1-yl-1-(4-chloro-3-trifluoromethyl-phenyl)-ethylamino]-quinazoline-8-carboxylic acid amide (30 mg/kg) daily in monotherapy or in combination until tumors progressed or until treatment period of 65 days. At day 12, the day of vehicle group termination, median tumor volume (TV) change in % were calculated. Statistical analysis has been done with two way-RM ANOVA. Median time until tumor progression under treatment has been calculated at the end of the study. Tumor progression is defined as tumor volume change >73%.

CN1CCC(COc2cnc(-c3cccc(Cn4nc(-c5cccc(C#N)c5)ccc4=O)c3)nc2)CC1.Cl.O [3-(1-{3-[5-(1-Methyl-piperidin-4-ylmethoxy)-pyrimidin-2-yl]-benzyl}-6-oxo-1,6-dihydro-pyridazin-3-yl)-benzonitrile hydrochloride hydrate]
median tumor volume change (human H596 tumor cells): 35%
median time until tumor progression (human H596 tumor cells): 24 days
median tumor volume change [1]: −1%
median time until tumor progression [1]: 67 days
median tumor volume (TV) change (human U87-MG tumor cells): −71%
median time until tumor progression (human U87-MG tumor cells): 58 days

NC(=O)c1cccc2c(N[C@H](CN3CCC3)c3ccc(Cl)c(C(F)(F)F)c3)ncnc12 [4-[(S)-2-Azetidin-1-yl-1-(4-chloro-3-trifluoromethyl-phenyl)-ethylamino]-quinazoline-8-carboxylic acid amide]
median tumor volume change (human H596 tumor cells): 36%
median time until tumor progression (human H596 tumor cells): 24 days
median tumor volume change [1]: 138%
median time until tumor progression [1]: 14 days
median tumor volume (TV) change (human U87-MG tumor cells): 51%
median time until tumor progression (human U87-MG tumor cells): 14 days
